Legend:
[1] = tested on: ET-1; details: cited from earlier work; for ET-1 generation: from R. philippinarum
From the text: (§1) Among these peptides, ACEi peptides represent a promising alternative to synthetic drugs to control hypertension. For instance, canary seed peptides (CSP) have great potential as anti-hypertensive and anti-obesity agents due to their inhibition activity on ACE and pancreatic lipase, and their non-competitive inhibitory activity was due to their destabilization of the transition state and Zn(II) coordination in ACE [13]. Noncompetitive ... || ET-1 is a known vasoconstriction factor similar to Ang II and is capable of inducing endothelial dysfunction related to atherosclerosis and hypertension.

[2] = tested on: HUVECs; details: cited from earlier work
From the text: Among these peptides, ACEi peptides represent a promising alternative to synthetic drugs to control hypertension. For instance, canary seed peptides (CSP) have great potential as anti-hypertensive and anti-obesity agents due to their inhibition activity on ACE and pancreatic lipase, and their non-competitive inhibitory activity was due to their destabilization of the transition state and Zn(II) coordination in ACE [13]. Noncompetitive ... || NO can antagonize the vascular tone function of angiotensin II by down-regulating the synthesis of ang II type 1 receptor and ACE, which is further involved in regulating the peripheral and central function of the cardiovascular system and exerts vasoprotective effects. […] Therefore, the deficiency of NO will increase the risks of cardiovascular in pathologic situations, and improving endothelial NO production represents reasonable therapeutic strateg ...

[3] = target: T1, ACE (Oryctolagus cuniculus, UniProt P12822); details: from Ruditapes philippinarum; cited from earlier work
T1 construct: purchased Sigma-Aldrich (Shanghai) Trading Co., Ltd. A6778
T1 sequence (P12822 34-1310): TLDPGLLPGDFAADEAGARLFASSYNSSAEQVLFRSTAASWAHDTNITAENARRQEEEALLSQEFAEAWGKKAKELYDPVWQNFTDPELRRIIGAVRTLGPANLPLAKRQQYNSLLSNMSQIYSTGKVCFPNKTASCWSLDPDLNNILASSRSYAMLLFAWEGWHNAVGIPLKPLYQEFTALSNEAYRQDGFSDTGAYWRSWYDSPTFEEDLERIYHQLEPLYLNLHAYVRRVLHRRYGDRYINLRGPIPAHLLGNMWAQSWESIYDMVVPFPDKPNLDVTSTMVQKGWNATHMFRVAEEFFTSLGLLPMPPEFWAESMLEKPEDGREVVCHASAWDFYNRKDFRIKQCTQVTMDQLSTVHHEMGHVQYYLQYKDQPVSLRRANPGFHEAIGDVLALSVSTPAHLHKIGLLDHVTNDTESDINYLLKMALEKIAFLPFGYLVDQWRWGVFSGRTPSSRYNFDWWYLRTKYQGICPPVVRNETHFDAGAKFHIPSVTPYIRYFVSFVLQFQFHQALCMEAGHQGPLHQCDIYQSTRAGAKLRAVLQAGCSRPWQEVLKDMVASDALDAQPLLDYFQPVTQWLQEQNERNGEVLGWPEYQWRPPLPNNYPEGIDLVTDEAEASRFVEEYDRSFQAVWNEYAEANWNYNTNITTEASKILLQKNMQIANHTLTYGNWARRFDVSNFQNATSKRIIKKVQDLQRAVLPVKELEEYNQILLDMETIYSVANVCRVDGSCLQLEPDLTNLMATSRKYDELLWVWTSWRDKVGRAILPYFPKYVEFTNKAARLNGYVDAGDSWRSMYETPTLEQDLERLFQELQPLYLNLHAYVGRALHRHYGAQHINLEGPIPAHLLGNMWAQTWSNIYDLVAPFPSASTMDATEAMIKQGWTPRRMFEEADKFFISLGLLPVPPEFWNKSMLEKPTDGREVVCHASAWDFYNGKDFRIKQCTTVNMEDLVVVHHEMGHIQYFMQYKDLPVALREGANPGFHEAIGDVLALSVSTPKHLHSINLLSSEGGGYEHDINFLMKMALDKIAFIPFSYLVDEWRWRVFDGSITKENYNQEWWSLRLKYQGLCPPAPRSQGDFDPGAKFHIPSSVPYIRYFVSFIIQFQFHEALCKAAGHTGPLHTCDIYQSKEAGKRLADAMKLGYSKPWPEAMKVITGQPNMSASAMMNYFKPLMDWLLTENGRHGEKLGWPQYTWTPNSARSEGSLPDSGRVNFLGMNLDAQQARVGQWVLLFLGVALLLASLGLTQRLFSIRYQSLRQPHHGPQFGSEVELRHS
From the text: Among these peptides, ACEi peptides represent a promising alternative to synthetic drugs to control hypertension. For instance, canary seed peptides (CSP) have great potential as anti-hypertensive and anti-obesity agents due to their inhibition activity on ACE and pancreatic lipase, and their non-competitive inhibitory activity was due to their destabilization of the transition state and Zn(II) coordination in ACE [13]. […] Auwal et al. illustrated that branched aliphatic or dicarboxylic amino acids (Val, Ala, Ile, and Leu) at the N-terminus could strengthen ACEi ability of peptides. Then, Val residue at the N-terminus of TMAP2 could improve its ACEi ability. […] Therefore, Ser residue, especially its hydroxyl group, should play a vital effect in the ACEi capability of ...

[4] = tested on: systolic blood pressure; details: single blood pressure test; cited from earlier work
From the text: as §1, with “...” for “... || ET-1 is a known vasoconstriction factor similar to Ang II and is capable of inducing endothelial dysfunction related to atherosclerosis and hypertension.”

[5] = tested on: HUVECs; test: HUVEC viability, MTT assay; format: cell-based, human; details: 24 h, 100–400 μM
Description: After thawing, HUVECs were maintained in cultured flasks and cultured to confluence in DMEM containing 1% Penicillin-Streptomycin liquid, supplemented with 10% FBS. HUVECs received the culturing process at 37°C in a humidified 5% CO2 atmosphere.
The cell viability of TMAP1 and TMAP2 on HUVECs were assessed using the MTT assay on manufacturer’s instructions. In brief, cells were incubated in 96-well plates at density of 0.8 × 10^4 cells per well with 180 μL completed DMEM. Following a confluency of 50–60% in the 96-well plates, the cells were treated with 20 μL peptides under designed concentrations (100, 200, and 400 μM) and further cultured for 24 h at 37 °C. Subsequently, the cells were added to 20 μL MTT solution (5 mg/mL) and incubated for 4 h. Finally, DMSO was added into each well, and the absorbance (A) at 490 nm was determined. The cell viability was calculated as: Cell viability (%) = (Aexperiment group/Acontrol group) × 100(2)

[6] = tested on: HUVECs; test: ET-1 secretion of HUVECs; format: cell-based, human; details: 24 h
From the text: Skipjack tuna (K. pelamis) muscle was provided by Ningbo Today Food Co., Ltd (China). Sephadex G-25 resins and NO assay kit (Nitrate reductase approach, A012-1) were purchased from Nanjing Jiancheng Bioengineering Institute (China). ET-1 ELISA Kit (HM10108) was purchased from Shanghai Qiaodu Biotechnology Co. Ltd. (China).Trypsase (≥20,000 U/g), pepsase (≥500,000 U/g), papain (≥400,000 U/g), ACE (A6778) and N-[3-(2-Furyl) acryloyl]-Phe-Gly-Gly (FAPGG, F713) were purchased from Sigma-Aldrich (Shanghai) Trading Co., Ltd. (China). […] ACEi Peptides of (TMAP1-TMAP6) with purity higher than 98% were synthesized in Shanghai Apeptide Co. Ltd. (China).
The NO and ET-1 contents of HUVECs were determined after a 24 h treatment of ACEi peptides. […] NO and ET-1 production in treated cells were measured by employing human NO and ET-1 assay kit as manufactures’ protocol, separately.

[7] = tested on: HUVECs; test: NO production in HUVECs; format: cell-based, human; details: 24 h
[8] = tested on: eNOS; details: via Akt pathway; cited from earlier work
From the text: as §1, with “...” for “... || ET-1 is a known vasoconstriction factor similar to Ang II and is capable of inducing endothelial dysfunction related to atherosclerosis and hypertension.”

Row | Substance | ET-1 production [1] | ET-1 generation [1] | NO production of HUVEC [2] | NO secretion [2] | IC50 [3] [µM] | mode of ACE inhibition [3] | systolic blood pressure [4] | cell toxicity [5] | ET-1 secretion with NE ([6]; 200 μM peptide with NE (0.5 μM), NE alone 140.23 ± 5.81, p < 0.01) [pg/mL] | ET-1 secretion ([6]; 400 μM, control 118.68 ± 0.53) [pg/mL] | ET-1 secretion vs control group ([6]; tested concentrations (100–400 μM), p < 0.001 or p < 0.01) | reversal of NE-reduced NO content ([7]; 200 μM peptide with NE (0.5 μM), p < 0.001 vs NE) | NO level ([7]; 400 μM, control 34.41 ± 1.27, p < 0.001) [μmol/gprot] | NO level vs control group ([7]; 100, 200 and 400 μM, p < 0.001) | NO synthesis in HUVECs ([2]; via Akt pathway) | expression of phosphorylated eNOS in HUVECs [8]
1 | GRVSNCAA [ACEi peptide from Ruditapes philippinarum] | reduced ET-1 production | significantly lessening ET-1 generation | increasing the NO production | promote NO secretion | 57.9 | Noncompetitive | lower systolic blood pressure | – | – | – | – | – | – | – | – | –
2 | H-VDRYF-OH [TMAP2, Val-Asp-Arg-Tyr-Phe] | – | – | – | – | – | – | – | did not induce significant cell toxicity | 111.78 ± 3.06 | 92.09 ± 4.58 | decreased | partially offset | 51.88 ± 2.16 | significantly increased | – | –
3 | KYIPIQ [ACEi peptide found in yak milk casein] | – | – | – | – | – | – | – | – | – | – | – | – | – | – | promote NO synthesis | promote NO synthesis and the expression of phosphorylated endothelial NO synthase (eNOS) in HUVECs
4 | TYLPVH [ACEi peptide from Ruditapes philippinarum] | reduced ET-1 production | significantly lessening ET-1 generation | increasing the NO production | promote NO secretion | 1.37 | Noncompetitive | lower systolic blood pressure | – | – | – | – | – | – | – | – | –

Source: article PMC8954214, “Preparation, Identification, Molecular Docking Study and Protective Function on HUVECs of Novel ACE Inhibitory Peptides from Protein Hydrolysate of Skipjack Tuna Muscle” (Marine Drugs, 2022)
